Data taken from ChEMBL document CHEMBL1201862, “PubChem BioAssay data set” (2004).
Calls of active or inactive are those of the source.

What was measured:
Escherichia coli = test: microbe, parasite or virus in culture
Cytochrome P450 2C9 = Cytochrome P450 2C9 (Homo sapiens, UniProt P11712)
[1] = target: T1, Sentrin-specific protease 7 (Homo sapiens, UniProt Q9BQF6); assay type: functional;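 also: Luminescence-based dose-response confirmation of ultra-high-throughput screening hits, measuring inhibition of SENP7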
T1 sequence (Q9BQF6 whole entry): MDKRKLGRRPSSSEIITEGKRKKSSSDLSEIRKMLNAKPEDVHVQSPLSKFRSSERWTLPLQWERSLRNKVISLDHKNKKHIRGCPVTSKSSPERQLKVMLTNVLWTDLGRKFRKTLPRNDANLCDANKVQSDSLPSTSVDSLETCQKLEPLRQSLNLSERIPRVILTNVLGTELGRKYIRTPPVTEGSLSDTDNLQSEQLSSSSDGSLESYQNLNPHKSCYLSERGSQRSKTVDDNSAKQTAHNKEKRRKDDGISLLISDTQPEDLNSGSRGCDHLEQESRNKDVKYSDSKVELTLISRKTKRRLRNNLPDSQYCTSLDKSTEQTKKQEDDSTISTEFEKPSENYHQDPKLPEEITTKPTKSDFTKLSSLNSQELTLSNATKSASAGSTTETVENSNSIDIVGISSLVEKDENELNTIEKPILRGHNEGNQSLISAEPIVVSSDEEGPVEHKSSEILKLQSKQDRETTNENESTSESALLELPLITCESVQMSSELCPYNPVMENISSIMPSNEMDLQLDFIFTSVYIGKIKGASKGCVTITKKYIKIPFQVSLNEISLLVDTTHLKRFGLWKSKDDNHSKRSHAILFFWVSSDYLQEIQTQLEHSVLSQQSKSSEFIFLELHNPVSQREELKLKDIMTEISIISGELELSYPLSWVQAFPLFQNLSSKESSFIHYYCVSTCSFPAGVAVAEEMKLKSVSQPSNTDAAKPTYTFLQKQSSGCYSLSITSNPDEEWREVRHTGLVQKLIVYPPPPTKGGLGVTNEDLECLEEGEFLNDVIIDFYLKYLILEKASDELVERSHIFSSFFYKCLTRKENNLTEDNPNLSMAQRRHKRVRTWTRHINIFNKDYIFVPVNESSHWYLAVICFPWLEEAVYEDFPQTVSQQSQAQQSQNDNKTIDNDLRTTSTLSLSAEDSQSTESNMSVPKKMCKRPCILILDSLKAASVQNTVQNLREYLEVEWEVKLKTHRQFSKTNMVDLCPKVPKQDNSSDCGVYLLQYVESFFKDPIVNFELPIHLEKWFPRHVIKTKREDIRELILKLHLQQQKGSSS

[2] = target: T2, Sentrin-specific protease 8 (Homo sapiens, UniProt Q96LD8); assay type: functional;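 also: luminescence read-out of SENP8 inhibition, dose-response confirmation following an ultra-high-throughput screen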
T2 sequence (Q96LD8 whole entry): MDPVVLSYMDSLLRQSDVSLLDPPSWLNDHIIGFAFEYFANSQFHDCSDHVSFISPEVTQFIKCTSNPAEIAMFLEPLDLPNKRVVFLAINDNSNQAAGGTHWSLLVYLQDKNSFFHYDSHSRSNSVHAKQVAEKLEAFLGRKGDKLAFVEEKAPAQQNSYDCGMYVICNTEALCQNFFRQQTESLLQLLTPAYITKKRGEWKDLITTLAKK

[3] = target: T3, Sentrin-specific protease 6 (Homo sapiens, UniProt Q9GZR1); assay type: functional;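 also: Luminescence-based dose-response confirmatory assay of SENP6 inhibition, following up an ultra-high-throughput screen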
T3 sequence (Q9GZR1 whole entry): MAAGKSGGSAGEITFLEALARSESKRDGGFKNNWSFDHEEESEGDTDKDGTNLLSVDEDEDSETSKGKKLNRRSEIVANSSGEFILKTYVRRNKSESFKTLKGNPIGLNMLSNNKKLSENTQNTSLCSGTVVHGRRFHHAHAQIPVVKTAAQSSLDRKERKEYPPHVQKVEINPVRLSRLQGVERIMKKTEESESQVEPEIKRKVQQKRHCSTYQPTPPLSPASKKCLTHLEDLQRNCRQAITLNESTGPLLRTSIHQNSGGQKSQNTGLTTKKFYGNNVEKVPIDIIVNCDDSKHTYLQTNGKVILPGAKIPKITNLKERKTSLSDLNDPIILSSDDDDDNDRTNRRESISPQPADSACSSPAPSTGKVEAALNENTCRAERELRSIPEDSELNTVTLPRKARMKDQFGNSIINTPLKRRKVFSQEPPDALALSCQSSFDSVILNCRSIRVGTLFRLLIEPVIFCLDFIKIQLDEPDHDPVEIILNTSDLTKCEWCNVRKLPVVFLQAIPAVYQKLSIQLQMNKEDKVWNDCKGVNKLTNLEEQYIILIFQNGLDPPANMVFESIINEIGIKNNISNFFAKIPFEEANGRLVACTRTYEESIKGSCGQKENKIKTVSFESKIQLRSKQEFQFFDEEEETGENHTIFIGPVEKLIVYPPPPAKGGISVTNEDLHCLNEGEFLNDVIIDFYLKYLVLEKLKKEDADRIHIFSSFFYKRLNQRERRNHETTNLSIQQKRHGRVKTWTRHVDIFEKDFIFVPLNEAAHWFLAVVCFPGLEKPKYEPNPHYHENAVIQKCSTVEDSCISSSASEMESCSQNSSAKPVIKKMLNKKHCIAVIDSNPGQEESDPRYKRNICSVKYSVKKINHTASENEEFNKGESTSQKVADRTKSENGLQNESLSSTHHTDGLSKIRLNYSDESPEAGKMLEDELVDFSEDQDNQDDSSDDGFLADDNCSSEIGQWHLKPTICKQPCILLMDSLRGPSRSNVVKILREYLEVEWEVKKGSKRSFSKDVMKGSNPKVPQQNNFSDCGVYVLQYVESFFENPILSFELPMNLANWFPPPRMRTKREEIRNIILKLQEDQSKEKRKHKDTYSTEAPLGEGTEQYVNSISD

Caspase-3 = target: T4, Caspase-3 (Homo sapiens, UniProt P42574); assay type: functional;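 also: Dose-response selectivity test against caspase-3 for candidate inhibitors of sentrin-specific proteases (SENPs)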
T4 sequence (P42574 whole entry): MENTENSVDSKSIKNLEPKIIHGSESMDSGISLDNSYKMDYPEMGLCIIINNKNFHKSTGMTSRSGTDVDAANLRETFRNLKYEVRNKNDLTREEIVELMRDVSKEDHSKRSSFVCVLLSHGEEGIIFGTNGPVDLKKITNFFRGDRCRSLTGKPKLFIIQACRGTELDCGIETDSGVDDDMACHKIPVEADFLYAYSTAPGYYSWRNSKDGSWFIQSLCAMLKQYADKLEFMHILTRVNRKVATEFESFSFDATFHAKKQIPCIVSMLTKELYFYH

[4] = MIN6 cell viability loss – mouse insulinoma, cytotoxicity control, dose response (AID 2122); assay type: functional;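 also: confirmatory high-throughput counterscreen run to flag cytotoxic compounds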
Streptococcus = test: GAS UMAA2166 growth inhibition – luminescence, BacTiterGlo, counter-screen for streptokinase expression inhibitor project, dose response (AID 1915); assay type: functional, organism-based;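 also: potency for reduction of bacterial viability or growth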
[5] = non-specific 3'UTR reporter inhibition in Clone20-Shn3RL – cell-based, Renilla luciferase, cherry-picked, counter-screen for Shn3 inhibitor project, dose response (AID 624133); assay type: functional
Vero [6] = test: cells; assay type: functional; settings: Chlorocebus sabaeus
INS1 = test: INS-1E survival protection against cytokine death – cell-based, luminescence, retest, dose response (AID 449756); assay type: functional; settings: Rattus norvegicus;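 also: cell death triggered by IL-1 beta plus TNF-alpha plus IFN-gamma mixture; protective hits raise ATP signal compared with cytokine alone wells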
[7] = reduction of Shn3 3'UTR-driven luciferase in osteoblasts – cell-based, Clone20 osteoblasts, firefly luciferase, cherry-picked, dose response (AID 624132); assay type: functional;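 also: firefly luciferase luminescence from reporter carrying the Shn3 3'UTR in osteoblasts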
[8] = decrease of insulin promoter-GFP reporter – imaging, high-content screening, mouse beta cells (AID 1628); assay type: functional; settings: MIN6
[9] = loss of viability in HepG2 cells – cell-based, CellTiter-Glo, cherry-picked, cytotoxicity control for Shn3 inhibitor project, dose response (AID 624134); assay type: functional
[10] = system: Streptococcus sp. 'group A'; test: Streptococcus pyogenes SK(-)GAS viability under kanamycin – luminescence, BacTiterGlo, confirmation, counter-screen for streptokinase expression inhibitor project, dose response (AID 1900); assay type: functional, organism-based
Streptokinase A = target: T5, Streptokinase A (Streptococcus pyogenes serotype M1, UniProt P10520); test: viability-normalized secreted streptokinase activity reduction – plasminogen activation absorbance, OD405, dose response (AID 1914); assay type: functional, Streptococcus pyogenes M1 GAS;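 also: secreted streptokinase activity via plasminogen activation per viability signal from cell pellet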
T5 sequence (P10520 whole entry): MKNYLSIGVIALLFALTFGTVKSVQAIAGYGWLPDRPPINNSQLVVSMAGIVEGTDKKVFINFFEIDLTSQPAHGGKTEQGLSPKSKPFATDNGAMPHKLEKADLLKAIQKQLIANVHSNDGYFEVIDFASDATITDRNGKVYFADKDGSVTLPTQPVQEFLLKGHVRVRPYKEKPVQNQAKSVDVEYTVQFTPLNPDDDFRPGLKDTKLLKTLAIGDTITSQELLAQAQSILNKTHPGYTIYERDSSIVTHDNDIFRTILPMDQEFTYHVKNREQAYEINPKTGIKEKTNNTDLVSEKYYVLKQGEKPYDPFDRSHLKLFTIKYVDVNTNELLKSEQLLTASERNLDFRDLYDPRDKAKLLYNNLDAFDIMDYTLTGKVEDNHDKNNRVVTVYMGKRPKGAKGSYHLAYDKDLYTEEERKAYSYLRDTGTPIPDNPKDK

Cytochrome P450 3A4 = Cytochrome P450 3A4 (Homo sapiens, UniProt P08684);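 also: CYP3A4 tested as one member of a cytochrome P450 panel screen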
Vero [11] = test: cells; assay type: functional, cell-based; settings: Chlorocebus sabaeus
[12] = viability of uninfected HEp-2 cells – cell-based, HTS, cytotoxicity control for RSV inhibitor project, dose response (AID 2410); assay type: functional; settings: human respiratory syncytial virus
CAAX prenyl protease 2 = target: T6, CAAX prenyl protease 2 (Homo sapiens, UniProt Q9Y256); test: inhibition of Ras-converting CAAX protease Rce1 – biochemical, yeast membranes, quenched-peptide fluorescence, cherry-pick, dose response (AID 588849)
T6 sequence (Q9Y256 whole entry): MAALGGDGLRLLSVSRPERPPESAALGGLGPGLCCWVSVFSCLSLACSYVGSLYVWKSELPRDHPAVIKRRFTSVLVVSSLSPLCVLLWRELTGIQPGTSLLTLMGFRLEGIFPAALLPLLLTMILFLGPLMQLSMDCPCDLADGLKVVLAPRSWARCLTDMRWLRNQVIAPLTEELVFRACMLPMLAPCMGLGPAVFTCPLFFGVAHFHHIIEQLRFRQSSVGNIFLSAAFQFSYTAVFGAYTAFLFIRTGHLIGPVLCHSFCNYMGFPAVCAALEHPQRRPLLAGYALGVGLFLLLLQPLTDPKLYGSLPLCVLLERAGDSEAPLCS

[13] = target: T7, Low molecular weight phosphotyrosine protein phosphatase (Homo sapiens, UniProt P24666); assay type: functional; settings: read-out: IC50_Mean;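 also: Dose-response confirmation assay measuring inhibition of LMPTP enzyme activity by fluorescence intensity read-out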
T7 sequence (P24666 whole entry): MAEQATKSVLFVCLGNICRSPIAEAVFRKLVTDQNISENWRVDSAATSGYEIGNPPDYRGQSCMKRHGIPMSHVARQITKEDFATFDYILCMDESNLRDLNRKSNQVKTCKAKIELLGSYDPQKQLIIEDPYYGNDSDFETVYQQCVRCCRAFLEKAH

Cytochrome P450 2D6 = Cytochrome P450 2D6 (Homo sapiens, UniProt P10635);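 also: CYP2D6 member of a cytochrome P450 panel assay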
Cytochrome P450 1A2 = target: T8, Cytochrome P450 1A2 (Homo sapiens, UniProt P05177);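 also: PubChem cytochrome P450 panel assay, CYP1A2 panel member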
T8 sequence (P05177 whole entry): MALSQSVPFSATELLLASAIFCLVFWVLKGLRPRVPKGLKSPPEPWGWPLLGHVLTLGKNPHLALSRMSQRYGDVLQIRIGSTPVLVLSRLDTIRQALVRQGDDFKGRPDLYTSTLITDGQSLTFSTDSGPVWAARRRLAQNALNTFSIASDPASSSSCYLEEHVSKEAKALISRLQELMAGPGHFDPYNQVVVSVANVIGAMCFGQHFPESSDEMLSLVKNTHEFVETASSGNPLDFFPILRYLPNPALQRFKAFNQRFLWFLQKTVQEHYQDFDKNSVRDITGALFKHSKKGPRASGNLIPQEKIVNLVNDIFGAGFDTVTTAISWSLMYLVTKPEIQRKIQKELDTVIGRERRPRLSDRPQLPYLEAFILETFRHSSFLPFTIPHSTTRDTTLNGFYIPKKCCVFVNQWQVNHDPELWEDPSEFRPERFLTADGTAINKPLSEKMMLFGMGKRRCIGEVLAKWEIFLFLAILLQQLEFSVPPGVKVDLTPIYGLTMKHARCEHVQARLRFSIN

Cytochrome P450 3A4, sequence (P08684 whole entry): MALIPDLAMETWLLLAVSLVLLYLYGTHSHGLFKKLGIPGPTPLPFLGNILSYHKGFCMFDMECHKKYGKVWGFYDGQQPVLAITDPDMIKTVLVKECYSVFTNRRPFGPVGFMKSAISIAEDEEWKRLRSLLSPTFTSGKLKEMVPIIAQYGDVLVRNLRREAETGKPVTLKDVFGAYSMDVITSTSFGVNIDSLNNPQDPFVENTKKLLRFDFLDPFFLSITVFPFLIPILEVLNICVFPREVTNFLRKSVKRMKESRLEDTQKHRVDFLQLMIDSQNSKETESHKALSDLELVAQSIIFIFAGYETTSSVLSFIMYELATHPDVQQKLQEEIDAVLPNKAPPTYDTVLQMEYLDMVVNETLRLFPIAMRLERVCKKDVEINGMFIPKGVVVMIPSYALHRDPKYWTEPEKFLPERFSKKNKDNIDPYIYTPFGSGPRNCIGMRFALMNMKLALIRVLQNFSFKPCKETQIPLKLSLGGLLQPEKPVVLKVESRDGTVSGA
Cytochrome P450 2D6, sequence (P10635 whole entry): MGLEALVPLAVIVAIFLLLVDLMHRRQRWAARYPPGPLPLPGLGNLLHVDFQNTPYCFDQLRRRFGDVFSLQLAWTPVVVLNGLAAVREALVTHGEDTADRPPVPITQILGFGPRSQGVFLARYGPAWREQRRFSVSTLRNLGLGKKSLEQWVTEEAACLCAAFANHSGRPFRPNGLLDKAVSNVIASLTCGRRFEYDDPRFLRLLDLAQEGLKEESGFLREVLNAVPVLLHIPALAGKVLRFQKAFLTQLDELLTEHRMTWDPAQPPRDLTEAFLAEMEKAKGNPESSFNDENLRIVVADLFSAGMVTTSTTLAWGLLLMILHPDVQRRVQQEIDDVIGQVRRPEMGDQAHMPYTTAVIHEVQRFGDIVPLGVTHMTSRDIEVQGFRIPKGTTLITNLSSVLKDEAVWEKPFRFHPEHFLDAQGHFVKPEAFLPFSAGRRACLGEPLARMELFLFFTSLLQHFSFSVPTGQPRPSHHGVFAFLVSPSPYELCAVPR
Cytochrome P450 2C9, sequence (P11712 whole entry): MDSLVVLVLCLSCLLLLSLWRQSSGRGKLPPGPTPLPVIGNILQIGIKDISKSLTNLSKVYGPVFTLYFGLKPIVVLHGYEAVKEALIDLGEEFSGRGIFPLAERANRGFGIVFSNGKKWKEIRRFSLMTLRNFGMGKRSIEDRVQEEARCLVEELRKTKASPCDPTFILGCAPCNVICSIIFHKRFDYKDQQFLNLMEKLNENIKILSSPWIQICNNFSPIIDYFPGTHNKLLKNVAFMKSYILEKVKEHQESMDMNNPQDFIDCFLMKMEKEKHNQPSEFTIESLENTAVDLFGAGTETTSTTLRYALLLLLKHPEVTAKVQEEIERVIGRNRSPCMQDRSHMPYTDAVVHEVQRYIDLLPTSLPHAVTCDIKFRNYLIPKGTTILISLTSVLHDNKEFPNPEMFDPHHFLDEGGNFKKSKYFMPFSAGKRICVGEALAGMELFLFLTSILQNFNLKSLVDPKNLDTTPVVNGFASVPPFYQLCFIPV

SMILES: Cc1ccn(C(=O)c2ccc(NC(=O)C3CC3)cc2)n1
- AC50 (Escherichia coli): 22.3 µM (active)

SMILES: NC(=O)c1ccc(-c2ncc(-c3ccccc3)o2)cc1
- AC50 (Cytochrome P450 2C9): 2.51 µM (inconclusive)
- IC50 [1]: 6.11 µM (active)
- IC50 [2]: 51.7 µM (active)
- IC50 [3]: 33.9 µM (active)
- IC50 (Caspase-3): 13.1 µM (active)

SMILES: CC1=NN(c2nc3ccccc3[nH]2)C(=O)C1Cc1ccccc1 (centres undefined)
- IC50 [4]: 1.43 µM (active)
- EC50 (Streptococcus): > 150 µM (not active)
- AC50 [5]: 2.6 µM (active)
- CC50 (Vero [6]): 2.92 µM (active)
- AC50 (INS1): 1.43 µM (active)
- AC50 [7]: 4.11 µM (active)
- IC50 [8]: 1.53 µM (active)
- AC50 [9]: > 70 µM (inactive)
- EC50 [10]: 1.17 µM (active)
- EC50 (Streptokinase A): > 150 µM (not active)

SMILES: O=C(COC(=O)c1ccc([N+](=O)[O-])s1)NCc1ccccc1
- IC50 [1]: 19.1 µM (active)
- IC50 [2]: 12.9 µM (active)
- IC50 [3]: 12.8 µM (active)
- IC50 (Caspase-3): 23.4 µM (active)

SMILES: Cn1cccc1C(=O)N1CCC2(CCN(Cc3nccs3)CC2)CC1
- AC50 (Cytochrome P450 3A4): inconclusive

SMILES: Cc1cccc(NC(=O)CSc2nc3ccccc3nc2N2CCCCC2)c1
- CC50 (Vero [6]): > 25 µM (active)
- IC50 (Vero [11]): 9.16 µM (active)
- CC50 [12]: 10.3 µM (active)
- IC50 (cells): 9 µM (active)

SMILES: COC(C/C=C/[C@@H](O)[C@H](C)OCc1ccccc1)OC
- AC50 (CAAX prenyl protease 2): 16.5 µM (active)

SMILES: CC(=O)/C(C#N)=C1\NC(=O)C(Cc2ccccc2)S1 (centres undefined)
- IC50 (Vero [11]): 9.17 µM (active)
- CC50 [12]: 14.4 µM (active)
- IC50 (cells): 5.09 µM (active)

SMILES: CCn1cc(C(=O)O)c(=O)c2cc(F)c(N3CCN(C(=S)NC(=O)c4ccc(OC)cc4)CC3)cc21
- AC50 (Escherichia coli): 8.97 µM (active)
- IC50 [13]: 7.26 µM (active)

SMILES: O=C(Oc1ccccc1)N1CCC2(CCN(Cc3ccccc3)CC2)CC1
- AC50 (Cytochrome P450 2D6): 39.8 µM (inconclusive)
- AC50 (Cytochrome P450 3A4): inconclusive

SMILES: O=C(c1cnccn1)N1CCC2(CC1)CCN(C(c1ccccc1)c1ccccc1)CC2
- AC50 (Cytochrome P450 3A4): inconclusive
- AC50 (Cytochrome P450 1A2): 10 µM (inconclusive)

SMILES: CCn1cnc2sc(-c3ccccc3)cc2c1=O
- IC50 [1]: 9.66 µM (active)
- IC50 [2]: 43.8 µM (active)
- IC50 [3]: 32.2 µM (active)
- IC50 (Caspase-3): 12.5 µM (active)
